Reference: US20100099698A1, “Compositions for Improving Skin Conditions Comprising Matrine or Its Oxidized Derivatives” (Biospectrum Inc., priority 2007, published 2010)
Read-outs that look alike come from different tables or passages of the source.

Key:
[1] = tested on: B16 mouse melanoma cells; assay: Inhibition of melanin production in melanoma cells; assay type: cell-based; conditions: 72 h, read-out: Inhibitory rate of melanin production (%)
Method: After measuring the inhibition of melanin production by matrine and oxymatrine using B16 mouse melanoma cells (Korean Cell Line Bank), the measurement was compared with that for the inhibition of melanin production by arbutin, known as a melanin production inhibitor.
B16 mouse melanoma cells F10 (Korean Cell Line Bank) were seeded into each well of a 6-well plate (1×10^5 cells/well) in DMEM (Dulbecco's modified Eagle's media) containing 10% FBS (fetal bovine serum) and the cells were cultured to about more than 80% confluence by incubating in a CO2 incubator under conditions of 37° C. and 5.0% CO2. After cultivation, the medium was removed and samples were replaced in medium diluted at suitable concentration, followed by incubating for 3 days under conditions of 37° C. and 5.0% CO2. […] The cells removing medium were washed with PBS (phosphate buffer saline) and treated with trypsin to collect cells. Number of the collected cells was calculated using hematocytometer (Tiefe Depth Profondeur 0.100 mm, Paul Marienfeld GmbH & Co. KG, D.E), centrifuged at 5,000 to 10,000 rpm for 10 min and the supernatant was eliminated, thereby obtaining pellets. This cell pellets were dried at 60° C., 100 μl of 1M NaOH containing 10% DMSO was added to thereto, and intracellular melanin was obtained in incubator at 60° C. Then, the cell solution was measured for absorbance at 490 nm using microplate reader (Bio-Tek ELx8081U, U.S) and the amount of melanin per cell constant number was estimated.

[2] = tested on: collagen (Type 1 collagen) biosynthesis; assay: Collagen synthesis: procollagen type I C-peptide (PICP) EIA in medium of treated fibroblasts; assay type: cell-based; conditions: 24 hr, human fibroblasts
Method: (§1) Human fibroblasts (commercially available from pacific) were seeded into a 6-well plate (2×10^5 cells/well) and the well plate was incubated in a 5% CO2 incubator for 24 hr at 37° C. After 24 hr, the medium in each well was removed and samples were treated with various concentrations, followed by incubating again for 24 hr. Following incubation, the cell medium was collected and was used as samples. To measure cytotoxicity of samples to fibroblasts, MIT reagent (1 mg/ml) was added to each well in 1/10 fold volume of the remaining medium, incubated for 3 hr and the medium was eliminated. The medium was dissolved in DMSO and its absorbance at 540 nm was measured.
The extent of collagen synthesis was determined by measuring the amount of procollagen type I C-peptide (PICP) in cell medium using Procollagen Type I C-peptide EIA kit (MK101, Takara, Kyoto, Japan). The method was performed in accordance with manufacturer's protocol.

[3] = tested on: COX (cyclooxygenase); assay: COX inhibitory ability in LPS-treated THP-1 cells, [1-14C] arachidonic acid, TLC; assay type: cell-based, human; conditions: LPS alone = 100
Method: To determine whether matrine and oxymatrine had anti-inflammatory effects, the experiment of COX (cyclooxygenase) inhibitory ability was carried out using human monocytic cell, THP-1 cell (Korean Cell Line Bank) according to conventional method. […] J. Van de Ouderaaa and Muytenhek. THP-1 cell line was cultivated and aliquoted into 24-well plate. The incubation volume per well was adjusted to 500 μl, 2 μl of the sample compound, which dissolved in […] (1 μg/ml, Sigma) and solvents described in the following Table 9 respectively, was added and cultivated for 24-48 hr under the same condition. After 24-48 hr, calcium ionophore (Sigma) and [1-14C] arachidonic acid 1 μl (in EtOH, 0.1 μCi/ml, Sigma) were added to each well, and cultivated for 10 min under the same condition. Following the cultivation, citric acid was added to each well for adjusting to pH 3.5, shaked, each 500 μl of cultivation solution taken from the plate was aliquoted into micro centrifuge tube, 700 μl of ethylacetate was added to thereto, and the solution was shaking extracted for 10 min. 500 μl of ethylacetate layer was concentrated using speed vacuum dryer for 20 min, 20 μl of the residual was dissolved in ethylacetate, and the resultant was employed with authentic standard in TLC plate. The radioactive band was identified by authentic eicosanoid standards, the radioactivity of the identified band was measured using BAS 2000 bio-imaging analyzer (Fuji, JP) (Table 9).

[4] = biological target: T1, collagenase (MMP-1) (Homo sapiens, UniProt P03956); assay: Collagenase activity, Type 1 collagenase assay kit, PMA-induced; assay type: cell-based
T1 construct: Following incubation, the cell medium was collected and was used as samples; endogenous in cells; host or cells: human fibroblasts (PMA-induced)
T1 sequence (P03956 100-469): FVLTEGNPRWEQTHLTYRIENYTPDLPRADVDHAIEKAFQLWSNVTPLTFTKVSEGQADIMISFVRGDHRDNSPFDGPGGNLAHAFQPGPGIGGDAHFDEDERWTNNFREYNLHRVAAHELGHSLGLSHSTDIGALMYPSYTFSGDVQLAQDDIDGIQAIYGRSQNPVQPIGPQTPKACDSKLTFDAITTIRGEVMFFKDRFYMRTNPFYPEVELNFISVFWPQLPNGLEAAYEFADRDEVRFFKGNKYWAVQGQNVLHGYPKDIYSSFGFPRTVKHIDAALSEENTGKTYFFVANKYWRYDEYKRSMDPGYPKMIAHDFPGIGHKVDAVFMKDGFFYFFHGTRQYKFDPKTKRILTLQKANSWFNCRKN
Method: as §1
As a method of measuring the activity of collagenase, an enzyme that decomposes collagen, an antibody against collagenase was used. As material inducing collagenase activity, PMA (phorbol myristate acetate, Sigma) was treated. For measuring collagenase activity, a Type 1 collagenase assay kit (Amersham Biosciences, RPN2629) was used, and the absorbance was measured using an ELISA reader (Bio-Tek ELx808™ Series Ultra Microplate Reader, U.K). The measured average values were represented as mean±standard deviation.

[5] = tested on: Human fibroblasts; assay: Cytotoxicity to fibroblasts (MIT reagent, absorbance 540 nm); assay type: cell-based; conditions: 1 μM, 10 μM and 50 μM; compared to RA (retinoic acid); FIG. 1
Method: as §1

[6] = tested on: B16 mouse melanoma cells; assay: Cytotoxicity at the test concentrations in B16 melanoma cells; assay type: cell-based; conditions: 10 μM, 100 μM and 500 μM

O=C1CCC[C@@H]2[C@H]3CCC[N+]4([O-])CCC[C@@H](CN12)[C@@H]34 (some centres unmarked) [Oxymatrine, oxymatrine] gave an inhibition at 10 µM ([1]; 10 μM, 3 days) of 13%, an inhibition at 100 µM ([1]; 100 μM, 3 days) of 27% and an inhibition at 500 µM ([1]; 500 μM, 3 days) of 31%. The “Increasing rate of collagen synthesis (%)” value (from here on “Increasing rate … (%)”) ([2]; 1 μM) was 11%, the “Increasing rate … (%)” value ([2]; 10 μM) was 15% and the “Increasing rate … (%)” value ([2]; 50 μM) was 22%. The “COX activities (%)” value ([3]; 10 uM with LPS (1 μg/ml)) was 94%, the “COX activities (%)” value ([3]; 100 uM with LPS (1 μg/ml)) was 81% and the “COX activities (%)” value ([3]; 500 uM with LPS (1 μg/ml)) was 71%. The inhibition at 1 µM [4] was 6%, the inhibition at 10 µM [4] was 13% and the inhibition at 50 µM [4] was 17%.

In the case of O=C1CCC[C@@H]2[C@H]3CCCN4CCC[C@@H](CN12)[C@@H]34 [Matrine, matrine], the “cytotoxicity against human fibroblasts compared to RA” value [5] is reported as “lower cytotoxicity”, the inhibition at 10 µM [1] is reported as 11% and the inhibition at 100 µM [1] is reported as 31%. The inhibition at 500 µM [1] was 39%, the “Increasing rate … (%)” value ([2]; 1 μM) was 20% and the “Increasing rate … (%)” value ([2]; 10 μM) was 23%. The “Increasing rate … (%)” value ([2]; 50 μM) was 40%, the “COX activities (%)” value ([3]; 10 uM with LPS (1 μg/ml)) was 98% and the “COX activities (%)” value ([3]; 100 uM with LPS (1 μg/ml)) was 87%. For the same compound, the “COX activities (%)” value ([3]; 500 uM with LPS (1 μg/ml)) was 65%, the cytotoxicity [6] was “did not show cytotoxicity” and the inhibition at 1 µM [4] was 19%. The inhibition at 10 µM [4] was 20% and the inhibition at 50 µM [4] was 32%.
